This is an account of results in US8703768B2, “Nitrogen containing heteroaryl compounds” (Hoffmann-La Roche Inc., priority 2010, dated 2014).

Usually IC50 stands for the concentration needed to halve the response being measured.

The target in the experiment is human PDE10A (Homo sapiens (Human), UniProt Q9Y233). Description: human PDE10A full length Scintillation Proximity Assay (SPA). The experiment is classed as biochemical. To be noted: 50 nM cGMP and 50 nM [3H]-cGMP, 20 minutes at room temperature; read-out: PDE10A inhibition IC50. Summed up:
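Full-length enzyme incubated with compounds; reaction started with cGMP plus [^3H]-cGMP substrate and run 20 min at room temperature. Stopped with yttrium silicate SPA beads in 18 mM zinc sulphate, 1 h shaking, then scintillation counting; background from enzyme-free wells.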
(In general: Scintillation proximity formats need no separation of bound from free tracer.)

human PDE10A, sequence (Q9Y233 other isoform, or with tags, fused parts or gaps): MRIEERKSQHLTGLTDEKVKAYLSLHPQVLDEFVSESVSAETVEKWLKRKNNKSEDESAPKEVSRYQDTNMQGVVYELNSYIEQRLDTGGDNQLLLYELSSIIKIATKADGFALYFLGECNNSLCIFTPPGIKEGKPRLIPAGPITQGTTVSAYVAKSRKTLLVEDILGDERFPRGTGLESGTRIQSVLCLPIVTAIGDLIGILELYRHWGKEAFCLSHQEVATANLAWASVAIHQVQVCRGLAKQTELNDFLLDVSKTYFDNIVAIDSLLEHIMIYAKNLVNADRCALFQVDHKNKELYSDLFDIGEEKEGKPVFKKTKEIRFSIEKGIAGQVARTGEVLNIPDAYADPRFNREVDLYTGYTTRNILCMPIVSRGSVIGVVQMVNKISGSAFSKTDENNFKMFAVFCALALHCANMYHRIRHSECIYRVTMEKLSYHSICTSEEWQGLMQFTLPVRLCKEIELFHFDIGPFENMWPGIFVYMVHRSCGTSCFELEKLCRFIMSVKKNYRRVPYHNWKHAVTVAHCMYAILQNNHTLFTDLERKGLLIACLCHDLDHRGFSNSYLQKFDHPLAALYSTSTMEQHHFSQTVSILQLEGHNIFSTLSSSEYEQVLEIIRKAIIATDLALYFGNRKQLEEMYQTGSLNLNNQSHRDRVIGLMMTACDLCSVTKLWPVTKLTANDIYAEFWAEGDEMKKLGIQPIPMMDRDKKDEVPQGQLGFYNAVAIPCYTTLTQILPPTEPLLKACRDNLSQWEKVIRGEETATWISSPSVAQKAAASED

Regarding `CNC(=O)c1c(NC(=O)c2nc(OCC(F)(F)F)ncc2Nc2cncnc2)cnn1C` [Example 337, 5-(Pyrimidin-5-ylamino)-2-(2,2,2-trifluoro-ethoxy)-pyrimidine-4-carboxylic acid (1-methyl-5-methylcarbamoyl-1H-pyrazol-4-yl)-amide], the IC50 was determined as 0.126 µM.
The value for `CNC(=O)c1nn(C)cc1NC(=O)c1nc(C(C)(C)C)ncc1Nc1cncnc1` [Example 77, 2-tert-Butyl-5-(pyrimidin-5-ylamino)-pyrimidine-4-carboxylic acid (1-methyl-3-methylcarbamoyl-1H-pyrazol-4-yl)-amide] was 0.0034 µM.
As to `CC(C)(CO)NC(=O)c1ncccc1NC(=O)c1nc(C2CC2)cnc1Nc1cncnc1` [Example 273, 6-Cyclopropyl-3-(pyrimidin-5-ylamino)-pyrazine-2-carboxylic acid [2-(2-hydroxy-1,1-dimethyl-ethylcarbamoyl)-pyridin-3-yl]-amide], the 50% inhibitory concentration (IC50) stood at 0.0003 µM.
Consider `CNC(=O)c1cc(OCCO)ccc1NC(=O)c1nc(C2CC2)cnc1Nc1cncnc1` [Example 216, 6-Cyclopropyl-3-(pyrimidin-5-ylamino)-pyrazine-2-carboxylic acid [4-(2-hydroxy-ethoxy)-2-methylcarbamoyl-phenyl]-amide], for which the IC50 came to 0.0008 µM.
With `CN(C)C(=O)c1ccncc1NC(=O)c1nc(C2CC2)ccc1Nc1cncnc1` [Example 23, 6-Cyclopropyl-3-(pyrimidin-5-ylamino)-pyridine-2-carboxylic acid (4-dimethylcarbamoyl-pyridin-3-yl)-amide] the figure was 0.0878 µM; with `CC(C)(O)CNC(=O)c1cc(F)ccc1NC(=O)c1nc(C2CC2)cnc1Nc1cncnc1` [Example 306, 6-Cyclopropyl-3-(pyrimidin-5-ylamino)-pyrazine-2-carboxylic acid [4-fluoro-2-(2-hydroxy-2-methyl-propylcarbamoyl)-phenyl]-amide], 0.0014 µM.
Consider `O=C(Nc1cnccc1C(=O)N1CCCC1CO)c1nc(C2CC2)ccc1Nc1cncnc1` (stereo not drawn) [Example 80, 6-Cyclopropyl-3-(pyrimidin-5-ylamino)-pyridine-2-carboxylic acid [4-(2-hydroxymethyl-pyrrolidine-1-carbonyl)-pyridin-3-yl]-amide], for which the IC50 stood at 0.105 µM.
Turning to `CNC(=O)c1nn(C)cc1NC(=O)c1nc(CC(C)C)ncc1Nc1cncnc1` [Example 83, 2-Isobutyl-5-(pyrimidin-5-ylamino)-pyrimidine-4-carboxylic acid (1-methyl-3-methylcarbamoyl-1H-pyrazol-4-yl)-amide], the IC50 was 0.0055 µM.
On to `CNC(=O)c1c(NC(=O)c2nc(C3CC3)cnc2Nc2cncnc2)cnn1CC1CCCO1` (stereo not drawn) [Example 243, 6-Cyclopropyl-3-(pyrimidin-5-ylamino)-pyrazine-2-carboxylic acid [5-methylcarbamoyl-1-(tetrahydro-furan-2-ylmethyl)-1H-pyrazol-4-yl]-amide], for which the half-maximal inhibitory concentration (IC50) was determined as 0.0014 µM.
Take `O=C(Nc1cncnc1C(=O)N1CCC1)c1nc(C2CC2)cnc1Nc1cncnc1` [Example 211, 6-Cyclopropyl-3-(pyrimidin-5-ylamino)-pyrazine-2-carboxylic acid [4-(azetidine-1-carbonyl)-pyrimidin-5-yl]-amide]: the half-inhibitory concentration (IC50) is 2.65 µM.
In the case of `CCNC(=O)c1c(NC(=O)c2nc(C3CC3)cnc2Nc2cncnc2)cnn1CC` [Example 201, 6-Cyclopropyl-3-(pyrimidin-5-ylamino)-pyrazine-2-carboxylic acid (1-ethyl-5-ethylcarbamoyl-1H-pyrazol-4-yl)-amide], the IC50 came to 0.0115 µM.
With `Cn1ncc(NC(=O)c2nc(C3CC3)cnc2Nc2cncnc2)c1C(=O)NCC(F)F` [Example 145, 6-Cyclopropyl-3-(pyrimidin-5-ylamino)-pyrazine-2-carboxylic acid [5-(2,2-difluoro-ethylcarbamoyl)-1-methyl-1H-pyrazol-4-yl]-amide], the half-inhibitory concentration (IC50) amounted to 0.0029 µM.
Take `CC(C)c1cc(C(=O)N2CCOCC2)c(NC(=O)c2nc(C3CC3)ccc2Nc2cncnc2)s1` [Example 91, 6-Cyclopropyl-3-(pyrimidin-5-ylamino)-pyridine-2-carboxylic acid [5-isopropyl-3-(morpholine-4-carbonyl)-thiophen-2-yl]-amide]: the IC50 amounted to 0.0275 µM.
The value for `CNC(=O)c1c(NC(=O)c2nc(C(C)C)ncc2Nc2cccnc2)cnn1C` [Example 186, 2-Isopropyl-5-(pyridin-3-ylamino)-pyrimidine-4-carboxylic acid (1-methyl-5-methylcarbamoyl-1H-pyrazol-4-yl)-amide] was 0.0082 µM; that for `O=C(Nc1sccc1C(=O)N1CCOCC1)c1nc(C2CC2)ccc1Nc1cncnc1` [Example 90, 6-Cyclopropyl-3-(pyrimidin-5-ylamino)-pyridine-2-carboxylic acid [3-(morpholine-4-carbonyl)-thiophen-2-yl]-amide] was 0.0004 µM.
As to `Cn1ncc(NC(=O)c2nc(C3CC3)cnc2Nc2cncnc2)c1C(=O)NC(C)(C)CO` [Example 152, 6-Cyclopropyl-3-(pyrimidin-5-ylamino)-pyrazine-2-carboxylic acid [5-(2-hydroxy-1,1-dimethyl-ethylcarbamoyl)-1-methyl-1H-pyrazol-4-yl]-amide], the 50% inhibitory concentration (IC50) was 0.0034 µM.
Take `CN(C)C1CCN(C(=O)c2nn(C)cc2NC(=O)c2nc(C3CC3)ccc2Nc2cncnc2)C1` (stereo not drawn) [Example 37, 6-Cyclopropyl-3-(pyrimidin-5-ylamino)-pyridine-2-carboxylic acid [3-(3-dimethylamino-pyrrolidine-1-carbonyl)-1-methyl-1H-pyrazol-4-yl]-amide]: the 50% inhibitory concentration (IC50) came out at 0.0181 µM.
For `CN(C)C(=O)c1cc(F)c(F)cc1NC(=O)c1nc(C2CC2)cnc1Nc1cncnc1` [Example 284, 6-Cyclopropyl-3-(pyrimidin-5-ylamino)-pyrazine-2-carboxylic acid (2-dimethylcarbamoyl-4,5-difluoro-phenyl)-amide], the concentration for half-maximal inhibition (IC50) was 0.028 µM.
For `CNC(=O)c1nn(CCC(F)(F)F)cc1NC(=O)c1nc(C2CC2)ccc1Nc1cncnc1` [Example 9, 6-Cyclopropyl-3-(pyrimidin-5-ylamino)-pyridine-2-carboxylic acid [3-methylcarbamoyl-1-(3,3,3-trifluoro-propyl)-1H-pyrazol-4-yl]-amide], the IC50 amounted to 0.149 µM.
With `Cn1cc(NC(=O)c2nc(C3CC3)ccc2Nc2cncnc2)c(C(=O)N2CCCC2)n1` [Example 21, 6-Cyclopropyl-3-(pyrimidin-5-ylamino)-pyridine-2-carboxylic acid [1-methyl-3-(pyrrolidine-1-carbonyl)-1H-pyrazol-4-yl]-amide] the figure was 0.007 µM.
As for `CN(C)C(=O)c1ccc(F)c(F)c1NC(=O)c1nc(C2CC2)cnc1Nc1cncnc1` [Example 325, 6-Cyclopropyl-3-(pyrimidin-5-ylamino)-pyrazine-2-carboxylic acid (6-dimethylcarbamoyl-2,3-difluoro-phenyl)-amide], the concentration for half-maximal inhibition (IC50) stood at 0.335 µM.
For the molecule `CNC(=O)c1c(NC(=O)c2nc(CC(C)C)ncc2Nc2cncnc2)cnn1C` [Example 332, 2-Isobutyl-5-(pyrimidin-5-ylamino)-pyrimidine-4-carboxylic acid (1-methyl-5-methylcarbamoyl-1H-pyrazol-4-yl)-amide], the half-inhibitory concentration (IC50) worked out at 0.0128 µM.
For the molecule `CN(C)C(=O)c1nn(CC(F)(F)F)cc1NC(=O)c1nc(C2CC2)ccc1Nc1cncnc1` [Example 7, 6-Cyclopropyl-3-(pyrimidin-5-ylamino)-pyridine-2-carboxylic acid [3-dimethylcarbamoyl-1-(2,2,2-trifluoro-ethyl)-1H-pyrazol-4-yl]-amide], the half-maximal inhibitory concentration (IC50) came to 0.336 µM.
Regarding `CNC(=O)c1c(NC(=O)c2nc(N3CCN(C)CC3)cnc2Nc2cncnc2)cnn1C` [Example 333, 4-Methyl-5′-(pyrimidin-5-ylamino)-3,4,5,6-tetrahydro-2H-[1,2]bipyrazinyl-6′-carboxylic acid (1-methyl-5-methylcarbamoyl-1H-pyrazol-4-yl)-amide], the concentration for half-maximal inhibition (IC50) worked out at 0.691 µM.
In the case of `COCCN(C)C(=O)c1ncccc1NC(=O)c1nc(C2CC2)cnc1Nc1cncnc1` [Example 117, 6-Cyclopropyl-3-(pyrimidin-5-ylamino)-pyrazine-2-carboxylic acid {2-[(2-methoxy-ethyl)-methyl-carbamoyl]-pyridin-3-yl}-amide], the IC50 was 0.0268 µM.
Consider `CC(C)(O)CNC(=O)c1nc(C2CC2)ccc1NC(=O)c1nc(C2CC2)cnc1Nc1cncnc1` [Example 159, 6-Cyclopropyl-3-(pyrimidin-5-ylamino)-pyrazine-2-carboxylic acid [6-cyclopropyl-2-(2-hydroxy-2-methyl-propylcarbamoyl)-pyridin-3-yl]-amide], for which the IC50 was determined as 0.0004 µM.
In the case of `Cn1ncc(NC(=O)c2nc(C3CC3)cnc2Nc2cncnc2)c1C(=O)NCC(C)(C)O` [Example 119, 6-Cyclopropyl-3-(pyrimidin-5-ylamino)-pyrazine-2-carboxylic acid [5-(2-hydroxy-2-methyl-propylcarbamoyl)-1-methyl-1H-pyrazol-4-yl]-amide], the IC50 was 0.0045 µM.
The value for `CN1CC(NC(=O)c2c(NC(=O)c3nc(C4CC4)cnc3Nc3cncnc3)cnn2C)C1` [Example 315, 6-Cyclopropyl-3-(pyrimidin-5-ylamino)-pyrazine-2-carboxylic acid [1-methyl-5-(1-methyl-azetidin-3-ylcarbamoyl)-1H-pyrazol-4-yl]-amide] was 0.0111 µM.
Turning to `CC1CCCN1C(=O)c1c(NC(=O)c2nc(C3CC3)cnc2Nc2cncnc2)cnn1C` (stereo not drawn) [Example 239, 6-Cyclopropyl-3-(pyrimidin-5-ylamino)-pyrazine-2-carboxylic acid [1-methyl-5-(2-methyl-pyrrolidine-1-carbonyl)-1H-pyrazol-4-yl]-amide], the IC50 was found to be 0.0477 µM.
The value for `CCN(C)c1cnc(Nc2cncnc2)c(C(=O)Nc2cnn(C)c2C(=O)NC)n1` [Example 311, 6-(Ethyl-methyl-amino)-3-(pyrimidin-5-ylamino)-pyrazine-2-carboxylic acid (1-methyl-5-methylcarbamoyl-1H-pyrazol-4-yl)-amide] was 0.0205 µM.
